Laboratory results from US11452726B2, “Salts of 2-fluoro-N-methyl-4-[7-(quinolin-6-yl-methyl)-imidazo[1,2-b][1,2,4]triazin-2-yl]benzamide and processes related to preparing the same” (Incyte Corporation, priority 2008, dated 2022).

What was measured:
[1] = physchem; conditions: 25 °C, thermodynamic from solid
Protocol: (§1) The sample concentration was then determined by HPLC using a single point calibration.

[2] = Equilibrium solubility in aqueous solvents, concentration by HPLC; conditions: 25° C., mixing at least 12 hours, listed as dihydrochloric acid salt, dihydrochloride
Protocol: as §1

[3] = 0.1 N aqueous HCl, simulated gastric fluid
[4] = pH 7.4 buffer, pH 7.4, aqueous buffer
[5] = pH 8.0 buffer, pH 8, aqueous buffer

| solubility [1, 3] | solubility [1, 4] | solubility [1, 5] | solubility ([1]; water) | solubility in water [2] | Structure (SMILES) |
| --- | --- | --- | --- | --- | --- |
| ≥ 29000 µg/mL | 3 µg/mL | 3 µg/mL | ~3900 µg/mL |  | CNC(=O)c1ccc(-c2cnc3ncc(Cc4ccc5ncccc5c4)n3n2)cc1F.O=S(=O)(O)c1ccccc1.O=S(=O)(O)c1ccccc1 [dibenzenesulfonic acid salt, 2-Fluoro-N-methyl-4-[7-(quinolin-6-ylmethyl)imidazolo[1,2-b][1,2,4]triazin-2-yl]benzamide dibenzenesulfonic acid salt] |
| ~24000 µg/mL | 2 µg/mL | 2 µg/mL | ~4900 µg/mL | approximately 4.5 mg/mL | CNC(=O)c1ccc(-c2cnc3ncc(Cc4ccc5ncccc5c4)n3n2)cc1F.Cl.Cl [Compound 21, 2-Fluoro-N-methyl-4-(7-(quinolin-6-ylmethyl)imidazo[1,2-b][1,2,4]triazin-2-yl)benzamide dihydrochloride] |
